# From patent US9452990B2, “Complement pathway modulators and uses thereof” (NOVARTIS AG, priority 2012, dated 2016)
# Structures can show the parent of a compound that is named as a salt.
# Molecular target: human complement factor B (CVF-Bb complex) (Homo sapiens (Human), UniProt P00751)
# Experiment: Human Complement Factor B ELISA Assay
# Type: biochemical
# Settings: not given
# Description: Human Complement Factor B ELISA Assay
# CVF-Bb complex prepared from purified cobra venom factor (1 μM), recombinant human complement factor B (expressed in drosophila cells and purified using standard methods) and human complement factor D (expressed in E. Coli, refolded and purified using standard methods). CVF-Bb complex at 3 nM concentration was incubated with test compound at various concentrations for 1 hour at room temperature in PBS pH 7.4 containing 10 mM MgCl2 and 0.05% (w/v) CHAPS. Human complement C3 substrate purified from plasma was added to a final concentration of 1 μM. After 1 hour incubation at room temperature, the enzyme reaction was stopped by addition of a cocktail of concentrated pan-protease inhibitors. The product of the reaction, C3a, was quantified by means of an enzyme-linked-immunosorbent assay. IC50 values were calculated from percentage of inhibition of CVF-Bb activity as a function of test compound concentration.
row,Structure (SMILES),IC50
1,"CCC[C@H]1CN(C(=O)C[C@@H](N)c2ccc(C(F)(F)F)cc2)CCN1c1nc(N)c2cc(OC)c(OC)c(F)c2n1 [Example 68, (R)-3-Amino-1-[(S)-4-(4-amino-8-fluoro-6,7-dimethoxy-quinazolin-2-yl)-3-propyl-piperazin-1-yl]-3-(4-trifluoromethyl-phenyl)-propan-1-one hydrochloride]",60 nM
2,"COc1cc2c(N)nc(N3CCN(C(=O)C[C@@H](N)c4ccc(F)cc4)C[C@@H]3C)nc2c(F)c1OC [Example 60, (R)-3-Amino-1-[(S)-4-(4-amino-8-fluoro-6,7-dimethoxy-quinazolin-2-yl)-3-methyl-piperazin-1-yl]-3-(4-fluoro-phenyl)-propan-1-one hydrochloride]",20 nM
3,"CC[C@H]1CN(C(=O)C[C@@H](N)c2ccc(C(F)(F)F)cc2)CCN1c1nc(N)c2cc(OC)c(OC)c(F)c2n1 [Example 66, (R)-3-Amino-1-[(S)-4-(4-amino-8-fluoro-6,7-dimethoxy-quinazolin-2-yl)-3-ethyl-piperazin-1-yl]-3-(4-trifluoromethyl-phenyl)-propan-1-one hydrochloride]",90 nM
4,"COc1cc2c(N)nc(N3CCN(C(=O)C[C@@H](N)c4ccccc4)C[C@@H]3C)nc2c(F)c1OC [Example 57, (R)-3-Amino-1-[(S)-4-(4-amino-8-fluoro-6,7-dimethoxy-quinazolin-2-yl)-3-methyl-piperazin-1-yl]-3-phenyl-propan-1-one hydrochloride]",210 nM
5,"COc1cc2c(N)nc(N3CCN(C(=O)C[C@@H](N)c4ccc(C#N)cc4)C[C@@H]3C)nc2c(F)c1OC [Example 58, 4-{(R)-1-Amino-3-[(S)-4-(4-amino-8-fluoro-6,7-dimethoxy-quinazolin-2-yl)-3-methyl-piperazin-1-yl]-3-oxo-propyl}-benzonitrile hydrochloride]",9 nM
6,"COc1cc2c(N)nc(N3CCN(C(=O)C[C@@H](N)c4ccc(C(F)(F)F)cc4)C[C@@H]3C)nc2c(F)c1OC [Example 61, (R)-3-Amino-1-[(S)-4-(4-amino-8-fluoro-6,7-dimethoxy-quinazolin-2-yl)-3-methyl-piperazin-1-yl]-3-(4-trifluoromethyl-phenyl)-propan-1-one hydrochloride]",40 nM
7,"COc1cc2c(N)nc(N3CCN(C(=O)C[C@@H](N)c4ccc(F)cc4F)CC3)nc2c(F)c1OC [Example 50, (R)-3-Amino-1-[4-(4-amino-8-fluoro-6,7-dimethoxy-quinazolin-2-yl)-piperazin-1-yl]-3-(2,4-difluoro-phenyl)-propan-1-one hydrochloride]",450 nM

# Same assay, conditions: CVF-Bb complex 3 nM, 1 hour preincubation with compound at room temperature, human C3 substrate 1 μM, C3a quantified by ELISA; read-out: Factor B IC50
row,Structure (SMILES),IC50
1,"COc1cc2c(N)nc(N3CCN(C(=O)[C@@H]4CCc5ccccc5[C@@H]4N)CC3)nc2c(F)c1OC [Example 104, [4-(4-Amino-8-fluoro-6,7-dimethoxy-quinazolin-2-yl)-piperazin-1-yl]-((1R,2R)-1-amino-1,2,3,4-tetrahydro-naphthalen-2-yl)-methanone]",760 nM
2,"COc1cc2c(N)nc(N3CCN(C(=O)C[C@@H]4CCCN4)C[C@@H]3c3ccccc3)nc2c(F)c1OC [Example 120, 1-[(S)-4-(4-Amino-8-fluoro-6,7-dimethoxy-quinazolin-2-yl)-3-phenyl-piperazin-1-yl]-2-(S)-pyrrolidin-2-yl-ethanone]",80 nM
3,"COc1cc2c(N)nc(N3CCN(C(=O)C[C@@H]4CCCNC4)C[C@@H]3c3ccccc3)nc2c(F)c1OC [Example 122, 1-[(S)-4-(4-Amino-8-fluoro-6,7-dimethoxy-quinazolin-2-yl)-3-phenyl-piperazin-1-yl]-2-(S)-piperidin-3-yl-ethanone]",200 nM
4,"COc1cc2c(N)nc(N3CCN(C(=O)C[C@@H](N)c4ccccc4)CC3)nc2c(F)c1OC [Example 39, (R)-3-Amino-1-[4-(4-amino-8-fluoro-6,7-dimethoxy-quinazolin-2-yl)-piperazin-1-yl]-3-phenyl-propan-1-one]",230 nM
5,"CC[C@H]1CN(C(=O)C[C@@H]2CCCN2)CCN1c1nc(N)c2cc(OC)c(OC)c(F)c2n1 [Example 116, 1-[(S)-4-(4-Amino-8-fluoro-6,7-dimethoxy-quinazolin-2-yl)-3-ethyl-piperazin-1-yl]-2-(S)-pyrrolidin-2-yl-ethanone]",540 nM
6,"COc1cc2c(N)nc(N3CCN(C(=O)c4cc5cc(C#N)ccc5[nH]4)C[C@@H]3c3ccccc3)nc2c(F)c1OC [Example 28, 2-[(S)-4-(4-Amino-8-fluoro-6,7-dimethoxy-quinazolin-2-yl)-3-phenyl-piperazine-1-carbonyl]-1H-indole-5-carbonitrile]",5 nM
7,"COc1cc2c(N)nc(N3CCN(C(=O)C[C@@H](N)C4CCCC4)CC3)nc2c(F)c1OC [Example 32, (R)-3-Amino-1-[4-(4-amino-8-fluoro-6,7-dimethoxy-quinazolin-2-yl)-piperazin-1-yl]-3-cyclopentyl-propan-1-one]",100 nM
8,"COc1cc2c(N)nc(N3CCN(C(=O)[C@@H]4CCc5ccccc5[C@@H]4N)C[C@@H]3c3ccccc3)nc2c(F)c1OC [Example 107, [(S)-4-(4-Amino-8-fluoro-6,7-dimethoxy-quinazolin-2-yl)-3-phenyl-piperazin-1-yl]-((1R,2R)-1-amino-1,2,3,4-tetrahydro-naphthalen-2-yl)-methanone]",240 nM
9,"COc1cc2c(N)nc(N3CCN(C(=O)C[C@@H](N)c4ccccc4)CC3)nc2c(C#N)c1OC [Example 75, 4-Amino-2-[4-((R)-3-amino-3-phenyl-propionyl)-piperazin-1-yl]-6,7-dimethoxy-quinazoline-8-carbonitrile]",760 nM
10,"COc1cc2c(N)nc(N3CCN(C(=O)C[C@@H](NCC(F)(F)F)c4ccc(F)cc4)CC3)nc2c(F)c1OC [Example 88, (R)-1-[4-(4-Amino-8-fluoro-6,7-dimethoxy-quinazolin-2-yl)-piperazin-1-yl]-3-(4-fluoro-phenyl)-3-(2,2,2-trifluoro-ethylamino)-propan-1-one]",30 nM
11,"COc1cc2c(N)nc(N3CCN(C(=O)C[C@@H]4CCCN4)CC3)nc2c(F)c1OC [Example 110, 1-[4-(4-Amino-8-fluoro-6,7-dimethoxy-quinazolin-2-yl)-piperazin-1-yl]-2-(S)-pyrrolidin-2-yl-ethanone]",140 nM
12,"COc1cc2c(N)nc(N3CCN(C(=O)/C=C/C4CCC4)C[C@@H]3C)nc2c(F)c1OC [Example 6, (E)-1-[(S)-4-(4-Amino-8-fluoro-6,7-dimethoxy-quinazolin-2-yl)-3-methyl-piperazin-1-yl]-3-cyclobutyl-propenone]",190 nM
13,"COc1cc2c(N)nc(N3CCN(C(=O)C[C@@H](NC(C)C)c4ccc(F)cn4)CC3)nc2c(F)c1OC [Example 101, (R)-1-[4-(4-Amino-8-fluoro-6,7-dimethoxy-quinazolin-2-yl)-piperazin-1-yl]-3-(5-fluoro-pyridin-2-yl)-3-isopropylamino-propan-1-one]",13 nM
14,"COc1cc2c(N)nc(N3CCN(C(=O)/C=C/C4CC4)CC3)nc2c(F)c1OC [Example 1, (E)-1-[4-(4-Amino-8-fluoro-6,7-dimethoxy-quinazolin-2-yl)-piperazin-1-yl]-3-cyclopropyl-propenone hydrochloride]",500 nM
15,"COc1cc2c(N)nc(N3CCN(C(=O)C[C@@H](N)c4ccc(C)s4)CC3)nc2c(F)c1OC [Example 38, (R)-3-Amino-1-[4-(4-amino-8-fluoro-6,7-dimethoxy-quinazolin-2-yl)piperazin-1-yl]-3-(5-methyl-thiophen-2-yl)-propan-1-one]",180 nM
16,"CC[C@H]1CN(C(=O)C[C@@H]2CCCCN2)CCN1c1nc(N)c2cc(OC)c(OC)c(F)c2n1 [Example 117, 1-[(S)-4-(4-Amino-8-fluoro-6,7-dimethoxy-quinazolin-2-yl)-3-ethyl-piperazin-1-yl]-2-(S)-piperidin-2-yl-ethanone]",780 nM
17,"COCCC1CN(C(=O)/C=C/C2CC2)CCN1c1nc(N)c2cc(OC)c(OC)c(F)c2n1 (centres unmarked) [Example 4, (E)-1-[4-(4-Amino-8-fluoro-6,7-dimethoxy-quinazolin-2-yl)-3-(2-methoxy-ethyl)-piperazin-1-yl]-3-cyclopropyl-propenone]",16500 nM
18,"COc1cc2c(N)nc(N3CCN(C(=O)C[C@@H](NC(CF)CF)c4ccc(F)cc4)CC3)nc2c(F)c1OC [Example 87, (R)-1-(4-(4-amino-8-fluoro-6,7-dimethoxyquinazolin-2-yl)piperazin-1-yl)-3-(1,3-difluoropropan-2-ylamino)-3-(4-fluorophenyl)propan-1-one]",40 nM
19,"COc1cc2c(N)nc(N3CCN(C(=O)c4cc5cc(F)ccc5[nH]4)CC3)nc2c(F)c1OC [Example 21, [4-(4-Amino-8-fluoro-6,7-dimethoxy-quinazolin-2-yl)-piperazin-1-yl]-(5-fluoro-1H-indol-2-yl)-methanone]",70 nM
20,"COCCOc1c(OC)cc2c(N)nc(N3CCN(C(=O)C[C@@H]4CCCN4)CC3)nc2c1F [Example 124, 1-{4-[4-Amino-8-fluoro-6-methoxy-7-(2-methoxy-ethoxy)-quinazolin-2-yl]-piperazin-1-yl}-2-(S)-pyrrolidin-2-yl-ethanone]",5950 nM
21,COc1cc2c(N)nc(N3CCN(C(=O)C[C@H](c4ccc(F)cc4)N4CCCC4)CC3)nc2c(F)c1OC [Example 103],15 nM
22,"COc1cc2c(N)nc(N3CCN(C(=O)CC4CNCCO4)C[C@@H]3c3ccccc3)nc2c(F)c1OC (stereo partly drawn) [Example 123, 1-[(S)-4-(4-Amino-8-fluoro-6,7-dimethoxy-quinazolin-2-yl)-3-phenyl-piperazin-1-yl]-2-morpholin-2-yl-ethanone]",890 nM
